# Tested on: retinal blood vessels
# Experiment: fluorocarbon inserted into the vitreous area of the rabbit eye, examination for retinal vessel damage
# Type: in vivo
# Conditions: 1.2 ml into one eye each of two rabbits after gas compression of the vitreous body; durations of between two days and six weeks
# Procedure: In fluorescence angiography, a narrowing of the vessels appears from the second post-operative day. As time passes, vessel occlusions, a rarefaction of the capillary bed and the development of microaneurisms appear.
# This oxygen-lacking perfluorodecalin was then sterile filtered and injected into one eye each of two rabbits, whereby, prior to the injection, the vitreous body was gas compressed in a known manner. After the gas compression, the gas was […] exchanged for 1.2 ml of the deoxygenated perfluorodecalin, so that about two thirds of the vitreous body area, including the area of the retinal blood vessels, was filled with perfluorodecalin.
# After durations of between two days and six weeks, the eyes were examined for vessel damage.
structure (smiles),measurement,value
"FC1(F)C(F)(F)C(F)(F)C2(F)C(F)(F)C(F)(F)C(F)(F)C(F)(F)C2(F)C1(F)F (stereo not shown) [oxygen-lacking perfluorodecalin, perfluorodecalin]","eyes examined for vessel damage, in comparison to the untreated eye",completely normal condition

# — patent US6372243B2, “Low-oxygen fluorocarbon as an agent for ophthalmology” (Pharm pur GmbH, priority 1998, dated 2002)
